# Paper PMC3814616, “BRAF inhibitors suppress apoptosis through off-target inhibition of JNK signaling” (eLife, 2013)
# Assays:
# phospho-ERK = experiment: Western blot, ERK phosphorylation in SRB1 and NHEK cells; assay type: cell-based, human; conditions: 0.6 μM (NHEK) or 1.2 μM (SRB1)
# Description: Figure 2. […] DOI: http://dx.doi.org/10.7554/eLife.00969.010 [drawing 5]
# human full-length ZAK = molecular target: T1, human full-length ZAK (Homo sapiens, UniProt Q9NYL2); experiment: In vitro kinase assay (Reaction Biology); assay type: biochemical
# T1 construct: In vitro kinase assays were performed using human full-length ZAK; purchased Reaction Biology
# [1] = molecular target: T2, MKK4 (amino acids 33-end) (Homo sapiens, UniProt P45985); experiment: In vitro kinase assay (Reaction Biology); assay type: biochemical; conditions: up to 1 μM
# T2 construct: amino acids 33-end MKK4 (JNK1 substrate, ATP 0.1 μM); purchased Reaction Biology
# T2 sequence (P45985 33-399 limits assumed): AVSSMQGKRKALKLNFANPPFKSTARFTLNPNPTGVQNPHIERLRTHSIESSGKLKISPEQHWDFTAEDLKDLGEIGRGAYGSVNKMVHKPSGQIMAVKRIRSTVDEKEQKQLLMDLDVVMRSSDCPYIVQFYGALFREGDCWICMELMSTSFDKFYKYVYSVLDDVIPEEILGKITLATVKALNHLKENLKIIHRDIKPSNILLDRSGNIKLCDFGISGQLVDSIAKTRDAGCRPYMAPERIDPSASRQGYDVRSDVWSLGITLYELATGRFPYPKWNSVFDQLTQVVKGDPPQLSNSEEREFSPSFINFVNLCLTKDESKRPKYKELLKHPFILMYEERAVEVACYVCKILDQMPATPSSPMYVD
# full length MAP4K5 = molecular target: T3, full length MAP4K5 (Homo sapiens, UniProt Q9Y4K4); experiment: In vitro kinase assay (Reaction Biology); assay type: biochemical; conditions: up to 1 μM
# T3 construct: and full length MAP4K5 (MBP substrate, ATP 10 μM) (Reaction Biology); purchased Reaction Biology
# T3 sequence (Q9Y4K4 whole entry): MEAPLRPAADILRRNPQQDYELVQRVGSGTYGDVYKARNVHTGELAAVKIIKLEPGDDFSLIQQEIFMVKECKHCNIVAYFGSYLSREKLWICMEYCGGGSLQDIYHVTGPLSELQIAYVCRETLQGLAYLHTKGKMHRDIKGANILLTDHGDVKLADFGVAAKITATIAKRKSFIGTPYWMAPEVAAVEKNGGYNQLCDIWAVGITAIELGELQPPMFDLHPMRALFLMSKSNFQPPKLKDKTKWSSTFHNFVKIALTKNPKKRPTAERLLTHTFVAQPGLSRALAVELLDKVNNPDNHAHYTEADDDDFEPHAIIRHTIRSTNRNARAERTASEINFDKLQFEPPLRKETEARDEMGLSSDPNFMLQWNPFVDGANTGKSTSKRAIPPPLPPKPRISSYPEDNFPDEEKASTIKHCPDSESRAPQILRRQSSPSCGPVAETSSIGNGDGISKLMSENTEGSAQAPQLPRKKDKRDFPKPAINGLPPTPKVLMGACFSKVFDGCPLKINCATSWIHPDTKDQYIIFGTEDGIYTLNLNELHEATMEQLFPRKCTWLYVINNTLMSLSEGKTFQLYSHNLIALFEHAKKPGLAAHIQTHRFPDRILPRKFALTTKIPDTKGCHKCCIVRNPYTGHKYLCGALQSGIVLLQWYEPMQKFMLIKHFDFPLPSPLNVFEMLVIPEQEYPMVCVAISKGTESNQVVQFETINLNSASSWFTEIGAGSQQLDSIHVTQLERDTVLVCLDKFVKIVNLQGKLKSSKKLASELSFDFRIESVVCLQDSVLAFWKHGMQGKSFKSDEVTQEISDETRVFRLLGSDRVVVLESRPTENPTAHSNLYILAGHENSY
# SRB1 cells = experiment: UV-induced apoptosis, FACS Annexin V+, TMRE-low; assay type: cell-based, human; conditions: 0.05 μM
# HaCaT cells = experiment: UV-induced apoptosis, FACS Annexin V+, TMRE-low; assay type: cell-based, human; conditions: 0.05 μM
# phospho-JNK = experiment: Western blot, UV-induced phospho-JNK in cSCC and HaCaT cell lines; assay type: cell-based, human; conditions: 0.05 μM, HaCaT and SRB1 cells
# [2] = tested on: E1A and HRAS^G12V-transformed wild-type (WT) MEFs; experiment: Soft agar colony formation; assay type: cell-based, mouse; conditions: 0.05 μM
# [3] = tested on: E1A and HRAS^G12V-transformed Craf−/− MEFs; experiment: Soft agar colony formation; assay type: cell-based, mouse; conditions: 0.05 μM
# [4] = tested on: A375 and WM35 BRAF^V600E melanoma cell lines; experiment: Growth of BRAF^V600E melanoma cell lines; assay type: cell-based, human; conditions: bioequivalent doses: dabrafenib 0.05 μM, PLX4720 1.0 μM
# [5] = Serum concentration in humans; assay type: in vivo, human; conditions: 150 mg PO BID vs vemurafenib 960 mg PO BID
# A375 melanoma cell line = conditions: ref Greger et al., 2012; cited from earlier work
# cSCC in treated patients = conditions: 150 mg PO BID, ref Falchook et al., 2012, Hauschild et al., Long et al.; cited from earlier work
# [6] = 150 mg PO BID in humans, ref Falchook et al., 2012; cited from earlier work
SMILES,ERK phosphorylation and activation (phospho-ERK),"IC50 (human full-length ZAK; MBP substrate, ATP 2.5 μM, read-out: biochemical IC50)",retained activity of ZAK kinase (human full-length ZAK; at 0.01 μM),inhibition of MKK4 [1],inhibition of MAP4K5 (full length MAP4K5),UV-induced apoptosis (SRB1 cells),UV-induced apoptosis (HaCaT cells),UV-induced phospho-JNK induction (phospho-JNK),colony formation [2],colony formation [3],growth of A375 and WM35 cells [4],"peak serum concentration, fold lower than mean sustained serum levels of vemurafenib [5]",GI50 (A375 melanoma cell line),overall aggregated cSCC rate (cSCC in treated patients),peak serum concentrations [6]
Cn1cnc2c(F)c(Nc3ccc(Br)cc3Cl)c(C(=O)NOCCO)cc21 [AZD6244],effectively abrogated,–,–,–,–,–,–,–,–,–,–,–,–,–,–
CC(C)(C)c1nc(-c2cccc(NS(=O)(=O)c3c(F)cccc3F)c2F)c(-c2ccnc(N)n2)s1 [dabrafenib],–,28.9 ± 2.23 nM,over 64%,no significant inhibition,no significant inhibition,fails to suppress,fails to suppress,fails to suppress,significant growth advantage,fails to confer a significant growth advantage,suppress the growth,over 50 fold,< 10 nM,6.1%,1.55 µM
